Two molecules from patent US20020169175A1, “Pharmaceutically acceptable salts of heterocyclic compounds” (DR. REDDY'S LABORATORIES LTD., priority 2001, published 2002) can be followed below.

Structures can show the parent of a compound that is named as a salt.

One assay relates to Swiss albino mice. Briefly: Plasma triglyceride and total cholesterol lowering activity in Swiss albino mice and Guinea pigs. In kind it is in vivo, mouse. As to conditions: oral, 6 days. As to the method:
c) Plasma Triglyceride and Total Cholesterol Lowering Activity in Swiss Albino Mice and Guinea Pigs
Male Swiss albino mice (SAM) and male Guinea pigs were obtained from NIN and housed in DRF animal house. All these animals were maintained under 12 hour light and dark cycle at 25±1° C. Animals were given standard laboratory chow (NIN Hyderabad, India) and water, ad libitum. SAM of 20-25 g body weight range and Guinea pigs of 500-700 g body weight range were used (Oliver, P., Plancke, M. O., Marzin, D., Clavey, V., Sauzieres, J and Fruchart, J. C. Effects of fenofibrate, gemfibrozil and nicotinic acid on plasma lipoprotein levels in normal and hyperlipidemic mice. Atherosclerosis. 1988. 70: 107-114).
The test compounds were administered orally to Swiss albino mice at 0.3 to 30 mg/kg/day dose for 6 days. Control mice were treated with vehicle (0.25% Carboxymethylcellulose; dose 10 ml/kg). The test compounds were administered orally to Guinea pigs at 0.3 to 30 mg/kg/day dose for 6 days. Control animals were treated with vehicle (0.25% Carboxymethylcellulose; dose 5 ml/kg).
The blood samples were collected in fed state 1 hour after drug administration on 0 and 6 day of treatment. The blood was collected from the retro-orbital sinus through heparinised capillary in EDTA containing tubes. After centrifugation, plasma sample was separated for triglyceride and total cholesterol (Wieland, O. Methods of Enzymatic analysis. Bergermeyer, H. O., Ed., 1963. 211-214; Trinder, P. Ann. Clin. Biochem. 1969. 6: 24-27). Measurement of plasma triglyceride, total cholesterol and HDL were done using commercial kits (Dr. Reddy's Diagnostic Division, Hyderabad, India).
(§1) 1. Percent reduction in Blood sugar/triglycerides/total cholesterol were calculated according to the formula: [formula]

In a further assay the target is T1, hPPARγ1 (Homo sapiens, UniProt P37231).
T1 construct: expressed in transfected cells; host or cells: HEK-293
T1 sequence (P37231 238-503 limits assumed): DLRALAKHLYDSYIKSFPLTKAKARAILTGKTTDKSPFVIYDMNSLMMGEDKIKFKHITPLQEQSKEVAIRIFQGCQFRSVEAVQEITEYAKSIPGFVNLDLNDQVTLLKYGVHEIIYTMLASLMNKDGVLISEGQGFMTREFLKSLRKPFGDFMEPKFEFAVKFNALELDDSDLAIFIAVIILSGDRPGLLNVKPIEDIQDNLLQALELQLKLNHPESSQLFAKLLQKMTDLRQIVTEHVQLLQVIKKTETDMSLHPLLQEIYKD
Briefly: Determination of hPPARγ activity (GAL4 fusion luciferase reporter in transfected HEK-293 cells). Format: cell-based. As to conditions: compound concentration 1 μM. As to the method:
b) Determination of hPPARγ Activity
Ligand binding domain of hPPARγ1 was fused to DNA binding domain of Yeast transcription factor GAL4 in eucaryotic expression vector. Using lipofectamine (Gibco BRL, USA) as transfecting reagent HEK-293 cells were transfected with this plasmid and a reporter plasmid harboring the luciferase gene driven by a GAL4 specific promoter. Compound was added at 1 μM concentration after 48 hrs of transfection and incubated overnight. Luciferase activity as a function of drug binding/activation capacity of PPARγ1 was measured using Packard Luclite kit (Packard, USA) in Packard Top Count (Ivan Sadowski, Brendan Bell, Peter Broag and Melvyn Hollis. Gene. 1992. 118: 137-141; Guide to Eukaryotic Transfections with Cationic Lipid Reagents. Life Technologies, GIBCO BRL, USA).

The test system of the next assay is C57BL/KsJ-db/db mice. Briefly: Efficacy in genetic models: blood sugar lowering in db/db mice. In kind it is in vivo, mouse. As to conditions: 0.1 mg/kg oral gavage daily for 6 days.
Excerpt: a) Efficacy in Genetic Models
Mutation in colonies of laboratory animals and different sensitivities to dietary regimens have made the development of animal models with non-insulin dependent diabetes and hyperlipidemia associated with obesity and insulin resistance possible. Genetic models such as db/db and ob/ob (Diabetes, (1982) 31(1): 1-6) mice and zucker fa/fa rats have been developed by the various laboratories for understanding the pathophysiology of disease and testing the efficacy of new antidiabetic compounds (Diabetes, (1983) 32: 830-838; Annu. Rep. Sankyo Res. Lab. (1994). 46: 1-57). […]
The random blood sugar and triglyceride levels were measured by collecting blood (100 μl) through orbital sinus, using heparinised capillary in tubes containing EDTA which was centrifuged to obtain plasma. The plasma glucose and triglyceride levels were measured spectrometrically, by glucose oxidase and glycerol-3-PO4 oxidase/peroxidase enzyme (Dr. Reddy's Lab. Diagnostic Division Kits, Hyderabad, India) methods respectively.
The blood sugar and triglycerides lowering activities of the test compound was calculated according to the formula.
as §1

The target of a further assay is T2, hPPARα (Homo sapiens, UniProt Q07869).
T2 construct: expressed in transfected cells; host or cells: HEK-293
T2 sequence (Q07869 239-466 limits assumed): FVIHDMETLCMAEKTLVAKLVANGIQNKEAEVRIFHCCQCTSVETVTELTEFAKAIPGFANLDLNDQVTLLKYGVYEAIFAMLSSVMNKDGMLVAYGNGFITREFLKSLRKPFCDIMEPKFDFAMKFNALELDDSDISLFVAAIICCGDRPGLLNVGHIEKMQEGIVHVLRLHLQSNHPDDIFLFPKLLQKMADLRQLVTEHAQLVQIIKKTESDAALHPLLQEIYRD
The assay can be described thus: Determination of hPPARα activity (GAL4 fusion luciferase reporter in transfected HEK-293 cells). Format: cell-based. As to conditions: compound concentration 50 μM. The procedure:
a) Determination of hPPARα Activity
Ligand binding domain of hPPARα was fused to DNA binding domain of Yeast transcription factor GAL4 in eucaryotic expression vector. Using superfect (Qiagen, Germany) as transfecting reagent HEK-293 cells were transfected with this plasmid and a reporter plasmid harboring the luciferase gene driven by a GAL4 specific promoter. Compound was added at different concentrations after 42 hrs of transfection and incubated overnight. Luciferase activity as a function of compound binding/activation capacity of PPARα was measured using Packard Luclite kit (Packard, USA) in Top Count (Ivan Sadowski, Brendan Bell, Peter Broag and Melvyn Hollis. Gene. 1992. 118: 137-141; Superfect Transfection Reagent Handbook. February 1997. Qiagen, Germany).
A general note: A reporter such as luciferase makes a cellular process visible.

For the molecule `CCO[C@@H](Cc1ccc(OCCn2c(CC)nc3ccccc3c2=O)cc1)C(=O)O` [Example 11, (−)-3-[4-[2-(2-Ethyl-4-oxo-3,4-dihydroquinazolin-3-yl)ethoxy]phenyl]-2-ethoxypropanoic acid arginine salt], the “Triglyceride Lowering (%)” value in the assay with Swiss albino mice (dose 0.3 mg/kg) is reported as 58%. This molecule also registered a PPARγ at hPPARγ1 of 27.0. For the same molecule, the “Reduction in Blood Glucose Level (%)” value in the assay on C57BL/KsJ-db/db mice is recorded as 61%. Further, the PPARα on hPPARα is recorded as 13.8.
As for `CCCc1nn(C)c2c(=O)n(CCOc3ccc(C[C@H](OCC)C(=O)O)cc3)c(CC)nc12` [Example 44, (−)-3-[4-[2-(1-Methyl-5-ethyl-7-oxo-3-propyl-6,7-dihydro-1H-pyrazolo[4,3-d]pyrimidin-6-yl)ethoxy]phenyl]-2-ethoxypropionic acid metformin salt], the “Triglyceride Lowering (%)” value with Swiss albino mice (dose 3 mg/kg) is listed as 80%. At hPPARα, this molecule registered a PPARα of 2.5.
